SMILES strings stand for the structures. Values after ≈ are worked out from the molar mass of the structure shown.

The data set is described as follows: Solubility comparison at room temperature. The settings on record: organic solvent or mixture. Type of data set: physicochemical. An excerpt:
Solubility comparison at room temperature (values in mg/l): […]

As to `C[C@@H](c1ncncc1F)[C@](O)(Cn1cncn1)c1ccc(F)cc1F` [Crystalline Form B, (2R,3S)-2-(2,4-diflurophenyl)-3-(5-fluoropyrimidin-4-yl)-1-(1H-1,2,4-triazol-1-yl) -butan-2-ol], the solubility (in general, how much of the substance goes into solution per volume) (Acetone) worked out at 250 µg/mL (≈ 716 µM) and the solubility (Methanol) was 125 µg/mL (≈ 358 µM).

These data come from patent publication US8039619B2, “Process for preparing (2R,3S/2S,3R)-2-(2,4-difluorophenyl)-3-(5-fluoropyrimidin-4-yl)-1-(1H-1,2,4-triazol-1-yl)butan-2-ol” (Dr. Reddy's Laboratories Limited, priority 2004, dated 2011).
